Measurements reported in patent US7256203B2, “Dicationic 2,5-diarylfuran aza-analogs as anti-protozoan agents” (The University of North Carolina at Chapel Hill, priority 2002, dated 2007).
Where a name gives a salt, the structure may show the parent alone. Read-outs that look alike come from different tables or passages of the source.

Experiments:
[1] = tested on: Plasmodium falciparum; test: In vitro anti-protozoan data, P. f.; type: cell-based
[2] = tested on: Trypanosoma brucei rhodesiense; test: In vitro anti-protozoan data, T. b. r.; type: cell-based
[3] = tested on: Leishmania donovani; test: In vitro anti-protozoan data, L. d.; type: cell-based
[4] = tested on: STIB900 strain of T. b. r.; test: Mouse model of virulent STIB900 strain of T. b. r.; type: in vivo
[5] = tested on: T. b. r.; test: CNS model in mice (2nd stage human African trypanosomiasis); type: in vivo; details: through day 120 of an experiment slated for 180 days
[6] = Plasmodium falciparum, in vitro, read-out: P. f. IC50
[7] = Trypanosoma brucei, RHODESIENSE, in vitro, read-out: T. b. r. IC50
[8] = in vitro, read-out: T. b. r. IC50
[9] = Plasmodium falciparum, in vitro, read-out: IC-50 values versus Plasmodium falciparum (p.f.)

| melting point | IC50 [1, 6] | IC50 [2, 7] | IC50 ([3]; Leishmania donovani) | SMILES | other results |
| --- | --- | --- | --- | --- | --- |
| 214 to 216 °C |  |  |  | N=C(NO)c1ccc(Cc2ccc(-c3ccc(C(=N)NO)cn3)o2)cc1 [Compound 36, N-Hydroxy-6-{5-[4-(N-hydroxycarbamimidoyl)benzyl]-furan-2-yl}-nicotinamidine] |  |
| 142 to 143 °C | 8.5 µM | 6.5 µM |  | CONC(=N)c1ccc(-c2ccc(-c3ccc(C(=N)NOC)nc3)o2)cc1 [Compound 18, N-Methoxy-5-{5-[4-(N-methoxycarbamimidoyl)-phenyl]-furan-2-yl}-pyridin-2-carboxamidine] |  |
|  |  |  |  | N=C(N)c1ccc(-c2ccc(-c3ccc(C(=N)N)nc3)o2)cc1 [Compound 20, 5-[5-(4-Carbamimidoyl-phenyl)-furan-2-yl]-pyridine-2-carboxamidine actate salt] | IC50 ([1]; in vitro, read-out: P. f. IC50): 0.0183 µM; IC50 [3]: 47 µM; IC50 [2, 8]: 0.0031 µM |
| 196 to 198 °C |  |  |  | Cc1cc(C(=N)NO)ccc1-c1ccc(-c2ccc(C(=N)NO)cn2)o1 [Compound 29, N-Hydroxy-6-{5-[4-(N-hydroxycarbamimidoyl)-2-methyl-phenyl]-furan-2-yl}-nicotinamidine] |  |
|  |  |  |  | CONC(=N)c1ccc(-c2ccc(-c3ccc(C(=N)NOC)cn3)s2)cc1 [Compound 12, N-Methoxy-6-{5-[4-(N-methoxy-carbamimidoyl)-phenyl]-thiophn-2-yl}-nicotinamidine] | IC50 ([1]; in vitro, read-out: P. f. IC50): 0.133 µM; IC50 [2, 8]: 9.43 µM |
|  | 0.0043 µM | 120 µM | > 195 µM | N=C(NO)c1ccc(-c2ccc(-c3ccc(C(=N)NO)cn3)o2)cc1 [Compound 4, N-Hydroxy-6-{5-[4-(N-hydroxycarbamimidoyl)-phenyl]-furan-2-yl}-nicotinamidine] | IC50 [1, 9]: < 0.01 µM |
| 293 to 295 °C (dec.) | > 10.4 µM | > 187 µM | > 187 µM | N=C(NO)c1ccc(-c2ccc(-c3ccc(C(=N)NO)cn3)s2)cc1 [Compound 11, N-Hydroxy-6-{5-[4-(N-hydroxycarbamimidoyl)-phenyl]-thiophen-2-yl}-nicotinamidine] |  |
| 276 to 279 °C | > 11.7 µM | 200 µM |  | N=C(NO)c1ccc(-c2ccc(-c3ccc(C(=N)NO)nc3)o2)cc1 [Compound 17, N-Hydroxy-5-{5-[4-(N-hydroxycarbamimidoyl)-phenyl]-furan-2-yl}-pyridine-2-carboxamidine] |  |
| 272 to 274 °C (dec.) | > 0.0102 µM | 55.8 µM | 77 µM | N=C(NO)c1ccc(-c2ccc(-c3ccc(C(=N)NO)cn3)o2)nc1 [Compound 22, 2,5-Bis[5-(N-hydroxycarbamimidoyl)-2-pyridyl)furan] |  |
|  |  |  |  | N=C(N)c1ccc(-c2ccc(-c3ccc(C(=N)N)cn3)o2)nc1 [Compound 24, 2,5-Bis[5-amidine-2-pyridyl)furan] | IC50 ([1]; in vitro, read-out: P. f. IC50): 0.083 µM; IC50 [3]: 193 µM; IC50 [2, 8]: 0.021 µM |
|  | 0.00177 µM | 11.1 µM | > 166 µM | CONC(=N)c1ccc(-c2ccc(-c3ccc(C(=N)NOC)cn3)o2)nc1 [Compound 27, 2,5-Bis[5-(N-methoxycarbamimidoyl)-2-pyridyl)furan] | IC50 [1, 9]: < 0.01 µM |
| 230 to 231 °C |  |  |  | N=C(NO)c1ccc(-c2ccc(C=Cc3ccccc3)o2)nc1 [Compound 33, N-Hydroxy-6-(5-styryl-furan-2-yl)-nicotinamidine] |  |

| SMILES | melting point | IC50 [1, 6] | IC50 [2, 7] | IC50 ([3]; Leishmania donovani) | other results |
| --- | --- | --- | --- | --- | --- |
| CC(=O)ONC(=N)c1ccc(-c2ccc(-c3ccc(C(=N)NOC(C)=O)cc3C)o2)nc1 [Compound 30, N-Acetoxy-6-{5-[4-(N-acetoxycarbamimidoyl)-2-methyl-phenyl]-furan-2-yl}-nicotinamidine] | 203 to 205 °C |  |  |  |  |
| CC(=O)ONC(=N)c1ccc(-c2ccc(-c3ccc(C(=N)NOC(C)=O)cn3)o2)nc1 [Compound 23, 2,5-Bis[5-(N-acetoxycarbamimidoyl)-2-pyridyl)furan] | 299 to 300 °C |  |  |  |  |
| CC(=O)ONC(=N)c1ccc(Cc2ccc(-c3ccc(C(=N)NOC(C)=O)cn3)o2)cc1 [Compound 37, N-Acetoxy-6-{5-[4-(N-acetoxycarbamimidoyl)benzyl]-furan-2-yl}-nicotinamidine] | 194 to 196 °C |  |  |  |  |
| N=C(N)c1ccc(-c2ccc(-c3ccc(C(=N)N)cn3)o2)cc1 [Compound 7, 6-[5-(4-Carbamimidoyl-phenyl)-furan-2-yl]-nicotinamidine] |  |  | 0.007 µM | 101 µM | IC50 ([1]; Plasmodium falciparum, read-out: IC-50 values versus Plasmodium falciparum (p.f.)): < 0.01 µM; IC50 ([1]; Plasmodium falciparum, read-out: P. f. IC50): 0.0065 µM; cure of virulent STIB900 strain of T. b. r. in a mouse model [4]: cure; IC50 ([2]; Trypanosoma brucei, RHODESIENSE, read-out: IC-50 values versus Trypanosoma brucei rhodesiense (T.b.r.)): < 0.01 µM |
| CONC(=N)c1ccc(-c2ccc(-c3ccc(C(=N)NOC)cn3)o2)cc1 [Compound 5, N-Methoxy-6-{5-[4-(N-methoxy-carbamimidoyl)-phenyl]-furan-2-yl}-nicotinamidine] |  | 0.0049 µM | 37.1 µM | 113 µM | IC50 [1, 9]: < 0.01 µM; cure of virulent STIB900 strain of T. b. r. in a mouse model [4]: cure; parasite free mice in the CNS model [5]: parasite free mice |
| CC(=O)ONC(=N)c1ccc(-c2ccc(-c3ccc(C(=N)NOC(C)=O)nc3)o2)cc1 [Compound 19, N -Acetoxy-5-{5-[4-(N-Acetoxycarbamimidoyl)-phenyl]-furan-2-yl}-pyridine-2-carboxamidine] | 267 to 270 °C |  |  |  |  |
